Source: ChEMBL document CHEMBL4507262, “Data for DCP probe A-1596586” (2021)

What was measured:
[1] = biological target: Alpha-1A adrenergic receptor (Homo sapiens) (UniProt P35348); experiment: Alpha1A (h) Eurofins-Cerep binding assay; set-up: ligand concentration 0.1 nM; conditions: filed as antagonist, Compound concentration 10.0 uM
[2] = biological target: Type-2 angiotensin II receptor (Homo sapiens) (UniProt P50052); experiment: AT2 (h) Eurofins-Cerep binding assay; set-up: ligand concentration 0.01 nM; conditions: filed as agonist, Compound concentration 10.0 uM
[3] = biological target: D(2) dopamine receptor (Homo sapiens) (UniProt P14416); experiment: D2S (h) Eurofins-Cerep binding assay; set-up: ligand concentration 0.3 nM; conditions: filed as antagonist, Compound concentration 10.0 uM
[4] = biological target: Peroxisome proliferator-activated receptor gamma (Homo sapiens) (UniProt P37231); experiment: PPARgamma (h) Eurofins-Cerep binding assay; set-up: ligand concentration 5 nM; conditions: filed as agonist, Compound concentration 10.0 uM
[5] = biological target: Prostaglandin E2 receptor EP2 subtype (Homo sapiens) (UniProt P43116); experiment: EP2 (h) Eurofins-Cerep binding assay; set-up: ligand concentration 3 nM; conditions: filed as agonist, Compound concentration 10.0 uM
[6] = biological target: Vasopressin V1a receptor (Homo sapiens) (UniProt P37288); experiment: V1 a (h) Eurofins-Cerep binding assay; set-up: ligand concentration 0.3 nM; conditions: filed as agonist, Compound concentration 10.0 uM
[7] = biological target: Sodium-dependent noradrenaline transporter (Homo sapiens) (UniProt P23975); experiment: norepinephrine transporter (h) Eurofins-Cerep binding assay; set-up: ligand concentration 1 nM; conditions: filed as antagonist, Compound concentration 10.0 uM
[8] = biological target: Sodium- and chloride-dependent GABA transporter 1 (Rattus norvegicus) (UniProt P23978); experiment: GABA transporter Eurofins-Cerep binding assay; set-up: ligand concentration 10 nM; conditions: filed as antagonist, Compound concentration 10.0 uM
[9] = tested on: Tyrosine-protein kinase ABL1 (Homo sapiens), P00519 [F317I]; conditions: Compound concentration 1000.0 nM
[10] = tested on: Tyrosine-protein kinase ABL1 (Homo sapiens), P00519 [F317L]; conditions: Compound concentration 1000.0 nM
[11] = biological target: Aurora kinase C (Homo sapiens) (UniProt Q9UQB9); conditions: Compound concentration 1000.0 nM
[12] = biological target: Bone morphogenetic protein receptor type-1B (Homo sapiens) (UniProt O00238); conditions: Compound concentration 1000.0 nM
[13] = biological target: Cyclin-dependent kinase 11B (Homo sapiens) (UniProt P21127); conditions: Compound concentration 1000.0 nM
[14] = tested on: Epidermal growth factor receptor (Homo sapiens), P00533 [UNDEFINED MUTATION]; conditions: Compound concentration 1000.0 nM
[15] = biological target: Receptor tyrosine-protein kinase erbB-4 (Homo sapiens) (UniProt Q15303); conditions: Compound concentration 1000.0 nM
[16] = biological target: Mitogen-activated protein kinase 3 (Homo sapiens) (UniProt P27361); conditions: Compound concentration 1000.0 nM
[17] = biological target: Fibroblast growth factor receptor 1 (Homo sapiens) (UniProt P11362); conditions: Compound concentration 1000.0 nM
[18] = biological target: Tyrosine-protein kinase Fgr (Homo sapiens) (UniProt P09769); conditions: Compound concentration 1000.0 nM
[19] = tested on: Receptor-type tyrosine-protein kinase FLT3 (Homo sapiens), P36888 [K663Q]; conditions: Compound concentration 1000.0 nM
[20] = biological target: Interleukin-1 receptor-associated kinase 1 (Homo sapiens) (UniProt P51617); conditions: Compound concentration 1000.0 nM
[21] = biological target: MAP/microtubule affinity-regulating kinase 4 (Homo sapiens) (UniProt Q96L34); conditions: Compound concentration 1000.0 nM
[22] = biological target: Serine/threonine-protein kinase MRCK alpha (Homo sapiens) (UniProt Q5VT25); conditions: Compound concentration 1000.0 nM
[23] = biological target: Serine/threonine-protein kinase 4 (Homo sapiens) (UniProt Q13043); conditions: Compound concentration 1000.0 nM
[24] = biological target: Myosin-IIIa (Homo sapiens) (UniProt Q8NEV4); conditions: Compound concentration 1000.0 nM
[25] = biological target: Serine/threonine-protein kinase 38-like (Homo sapiens) (UniProt Q9Y2H1); conditions: Compound concentration 1000.0 nM
[26] = biological target: Mitogen-activated protein kinase kinase kinase 14 (Homo sapiens) (UniProt Q99558); conditions: Compound concentration 1000.0 nM
[27] = biological target: Serine/threonine-protein kinase NIM1 (Homo sapiens) (UniProt Q8IY84); conditions: Compound concentration 1000.0 nM
[28] = biological target: Serine/threonine-protein kinase NLK (Homo sapiens) (UniProt Q9UBE8); conditions: Compound concentration 1000.0 nM
[29] = biological target: Mitogen-activated protein kinase 13 (Homo sapiens) (UniProt O15264); conditions: Compound concentration 1000.0 nM
[30] = biological target: Phosphatidylinositol 4,5-bisphosphate 3-kinase catalytic subunit delta isoform (Homo sapiens) (UniProt O00329); conditions: Compound concentration 1000.0 nM
[31] = biological target: Phosphatidylinositol 4-kinase beta (Homo sapiens) (UniProt Q9UBF8); conditions: Compound concentration 1000.0 nM
[32] = biological target: cGMP-dependent protein kinase 1 (Homo sapiens) (UniProt Q13976); conditions: Compound concentration 1000.0 nM
[33] = biological target: Ribosomal protein S6 kinase alpha-4 (Homo sapiens) (UniProt O75676); conditions: Compound concentration 1000.0 nM
[34] = biological target: Serine/threonine-protein kinase 33 (Homo sapiens) (UniProt Q9BYT3); conditions: Compound concentration 1000.0 nM
[35] = biological target: Serine/threonine-protein kinase TAO2 (Homo sapiens) (UniProt Q9UL54); conditions: Compound concentration 1000.0 nM
[36] = biological target: High affinity nerve growth factor receptor (Homo sapiens) (UniProt P04629); conditions: Compound concentration 1000.0 nM
[37] = biological target: T1, Muscarinic acetylcholine receptor M5 (Homo sapiens) (UniProt P08912); conditions: Compound concentration 10.0 uM
T1 sequence (whole entry): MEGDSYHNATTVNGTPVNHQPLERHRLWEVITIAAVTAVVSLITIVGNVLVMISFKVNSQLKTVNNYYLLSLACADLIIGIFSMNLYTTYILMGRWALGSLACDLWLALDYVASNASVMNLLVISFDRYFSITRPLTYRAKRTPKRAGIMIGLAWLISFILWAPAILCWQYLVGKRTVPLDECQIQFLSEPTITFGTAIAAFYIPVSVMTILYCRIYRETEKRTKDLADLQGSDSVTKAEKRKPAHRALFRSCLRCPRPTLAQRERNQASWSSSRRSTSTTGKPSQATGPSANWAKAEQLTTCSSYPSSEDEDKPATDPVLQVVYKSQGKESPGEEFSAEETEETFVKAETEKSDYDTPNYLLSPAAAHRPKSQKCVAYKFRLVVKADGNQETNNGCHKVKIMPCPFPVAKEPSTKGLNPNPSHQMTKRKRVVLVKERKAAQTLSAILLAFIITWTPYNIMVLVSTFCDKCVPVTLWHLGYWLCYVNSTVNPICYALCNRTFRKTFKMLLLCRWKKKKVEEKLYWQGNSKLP

Rattus norvegicus = organism: Rattus norvegicus; conditions: Compound concentration 10.0 uM

MAP/microtubule affinity-regulating kinase 4 (Homo sapiens), sequence (Q96L34 whole entry): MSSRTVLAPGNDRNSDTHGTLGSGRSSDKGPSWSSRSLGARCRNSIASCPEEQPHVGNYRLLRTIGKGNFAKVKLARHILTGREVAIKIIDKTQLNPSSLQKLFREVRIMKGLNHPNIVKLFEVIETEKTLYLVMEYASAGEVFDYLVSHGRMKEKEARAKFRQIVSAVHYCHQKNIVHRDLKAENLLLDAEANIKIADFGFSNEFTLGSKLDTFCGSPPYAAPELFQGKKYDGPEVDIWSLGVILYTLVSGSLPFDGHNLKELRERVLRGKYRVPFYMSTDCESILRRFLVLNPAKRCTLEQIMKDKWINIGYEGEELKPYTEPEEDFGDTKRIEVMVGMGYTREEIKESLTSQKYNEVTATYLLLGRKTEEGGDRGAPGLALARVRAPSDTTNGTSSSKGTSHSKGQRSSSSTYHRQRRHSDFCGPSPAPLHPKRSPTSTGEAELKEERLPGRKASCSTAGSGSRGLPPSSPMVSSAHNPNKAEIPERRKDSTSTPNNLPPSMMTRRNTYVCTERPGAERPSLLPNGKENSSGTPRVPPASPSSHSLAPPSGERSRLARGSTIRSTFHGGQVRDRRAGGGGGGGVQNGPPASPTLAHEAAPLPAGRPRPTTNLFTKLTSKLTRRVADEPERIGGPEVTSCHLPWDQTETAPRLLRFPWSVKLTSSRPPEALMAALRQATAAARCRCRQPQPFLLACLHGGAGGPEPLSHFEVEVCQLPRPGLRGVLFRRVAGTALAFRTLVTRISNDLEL
High affinity nerve growth factor receptor (Homo sapiens), sequence (P04629 33-796 limits assumed): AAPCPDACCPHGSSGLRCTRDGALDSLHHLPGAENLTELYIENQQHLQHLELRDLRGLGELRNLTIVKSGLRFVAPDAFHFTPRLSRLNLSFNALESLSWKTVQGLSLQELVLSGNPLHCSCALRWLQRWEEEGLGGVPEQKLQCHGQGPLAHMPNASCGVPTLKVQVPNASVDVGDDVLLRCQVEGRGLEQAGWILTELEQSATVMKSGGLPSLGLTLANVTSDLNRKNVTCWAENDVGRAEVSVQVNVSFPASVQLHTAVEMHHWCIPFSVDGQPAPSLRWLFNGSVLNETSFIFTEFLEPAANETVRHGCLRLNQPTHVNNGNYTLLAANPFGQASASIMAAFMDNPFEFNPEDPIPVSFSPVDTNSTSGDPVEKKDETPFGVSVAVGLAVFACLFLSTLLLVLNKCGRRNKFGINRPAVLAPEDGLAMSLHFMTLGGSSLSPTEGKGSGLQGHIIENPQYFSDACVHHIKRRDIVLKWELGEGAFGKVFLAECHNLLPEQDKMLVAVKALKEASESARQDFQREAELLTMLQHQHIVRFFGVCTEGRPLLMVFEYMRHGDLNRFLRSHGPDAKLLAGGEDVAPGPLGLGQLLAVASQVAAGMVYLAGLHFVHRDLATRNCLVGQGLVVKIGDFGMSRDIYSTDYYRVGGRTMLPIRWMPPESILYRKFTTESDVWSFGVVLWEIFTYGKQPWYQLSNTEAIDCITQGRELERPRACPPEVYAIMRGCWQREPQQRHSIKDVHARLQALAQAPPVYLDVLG
Ribosomal protein S6 kinase alpha-4 (Homo sapiens), sequence (O75676 whole entry, looked up): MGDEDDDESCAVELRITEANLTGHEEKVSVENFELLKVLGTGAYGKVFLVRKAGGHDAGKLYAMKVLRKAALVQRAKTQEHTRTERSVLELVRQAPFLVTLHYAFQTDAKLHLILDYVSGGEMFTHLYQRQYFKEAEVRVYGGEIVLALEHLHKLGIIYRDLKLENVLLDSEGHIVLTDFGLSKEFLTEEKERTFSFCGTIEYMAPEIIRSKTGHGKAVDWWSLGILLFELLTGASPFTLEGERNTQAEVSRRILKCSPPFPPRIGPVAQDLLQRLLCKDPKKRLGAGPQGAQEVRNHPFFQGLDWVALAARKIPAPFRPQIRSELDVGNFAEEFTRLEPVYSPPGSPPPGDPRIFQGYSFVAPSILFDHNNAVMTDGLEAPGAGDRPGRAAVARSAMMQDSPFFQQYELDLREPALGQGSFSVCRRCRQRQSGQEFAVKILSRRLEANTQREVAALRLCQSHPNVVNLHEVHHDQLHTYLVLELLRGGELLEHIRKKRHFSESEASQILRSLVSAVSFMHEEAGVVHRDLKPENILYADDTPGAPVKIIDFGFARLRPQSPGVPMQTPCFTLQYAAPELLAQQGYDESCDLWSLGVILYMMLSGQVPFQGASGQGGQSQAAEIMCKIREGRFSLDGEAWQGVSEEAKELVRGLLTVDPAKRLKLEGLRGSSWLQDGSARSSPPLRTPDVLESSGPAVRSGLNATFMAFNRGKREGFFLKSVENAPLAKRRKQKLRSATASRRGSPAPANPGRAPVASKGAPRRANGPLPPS
Bone morphogenetic protein receptor type-1B (Homo sapiens), sequence (O00238 whole entry): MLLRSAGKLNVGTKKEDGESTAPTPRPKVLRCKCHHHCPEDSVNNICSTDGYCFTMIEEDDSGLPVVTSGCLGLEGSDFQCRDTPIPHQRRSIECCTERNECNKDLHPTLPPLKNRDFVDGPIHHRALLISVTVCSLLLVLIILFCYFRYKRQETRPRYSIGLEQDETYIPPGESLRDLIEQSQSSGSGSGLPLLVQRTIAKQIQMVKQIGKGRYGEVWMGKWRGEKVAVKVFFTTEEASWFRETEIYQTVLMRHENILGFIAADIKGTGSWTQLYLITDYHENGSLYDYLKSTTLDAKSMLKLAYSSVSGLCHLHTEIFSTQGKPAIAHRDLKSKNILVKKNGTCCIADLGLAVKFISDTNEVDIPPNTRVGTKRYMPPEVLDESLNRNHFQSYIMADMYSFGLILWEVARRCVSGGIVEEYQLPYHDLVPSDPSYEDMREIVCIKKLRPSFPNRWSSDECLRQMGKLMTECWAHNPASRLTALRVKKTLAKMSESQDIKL
cGMP-dependent protein kinase 1 (Homo sapiens), sequence (Q13976 whole entry): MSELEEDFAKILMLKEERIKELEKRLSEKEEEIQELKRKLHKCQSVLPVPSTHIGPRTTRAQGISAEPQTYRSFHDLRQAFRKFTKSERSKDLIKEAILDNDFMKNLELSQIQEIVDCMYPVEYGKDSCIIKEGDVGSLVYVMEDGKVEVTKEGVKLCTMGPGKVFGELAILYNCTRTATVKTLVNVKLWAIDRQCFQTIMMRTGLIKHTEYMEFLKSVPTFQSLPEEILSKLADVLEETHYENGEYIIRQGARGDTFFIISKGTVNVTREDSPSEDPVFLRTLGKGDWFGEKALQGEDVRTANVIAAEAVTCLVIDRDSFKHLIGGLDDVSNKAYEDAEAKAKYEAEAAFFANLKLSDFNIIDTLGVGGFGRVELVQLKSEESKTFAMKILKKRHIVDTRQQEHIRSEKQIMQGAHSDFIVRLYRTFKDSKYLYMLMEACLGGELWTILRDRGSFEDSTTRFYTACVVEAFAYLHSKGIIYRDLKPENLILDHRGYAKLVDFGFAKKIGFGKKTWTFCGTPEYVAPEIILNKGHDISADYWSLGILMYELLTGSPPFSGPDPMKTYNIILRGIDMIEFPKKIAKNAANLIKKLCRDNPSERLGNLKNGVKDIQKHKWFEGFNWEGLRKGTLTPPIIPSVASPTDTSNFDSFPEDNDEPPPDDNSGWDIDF
Serine/threonine-protein kinase NLK (Homo sapiens), sequence (Q9UBE8 whole entry): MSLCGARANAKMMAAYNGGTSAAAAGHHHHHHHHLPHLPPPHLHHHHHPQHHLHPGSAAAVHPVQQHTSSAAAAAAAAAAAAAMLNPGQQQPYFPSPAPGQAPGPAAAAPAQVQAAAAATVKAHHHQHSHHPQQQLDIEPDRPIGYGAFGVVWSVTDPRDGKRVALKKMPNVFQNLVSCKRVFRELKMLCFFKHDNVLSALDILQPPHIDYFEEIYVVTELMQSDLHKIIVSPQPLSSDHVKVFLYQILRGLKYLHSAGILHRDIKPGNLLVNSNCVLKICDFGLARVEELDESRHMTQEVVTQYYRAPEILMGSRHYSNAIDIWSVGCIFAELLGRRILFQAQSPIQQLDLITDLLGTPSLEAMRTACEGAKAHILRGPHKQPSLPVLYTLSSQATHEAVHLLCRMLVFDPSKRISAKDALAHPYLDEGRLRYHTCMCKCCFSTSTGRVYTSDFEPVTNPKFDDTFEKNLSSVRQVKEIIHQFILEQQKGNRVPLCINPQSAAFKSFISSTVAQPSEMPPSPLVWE
Aurora kinase C (Homo sapiens), sequence (Q9UQB9 whole entry): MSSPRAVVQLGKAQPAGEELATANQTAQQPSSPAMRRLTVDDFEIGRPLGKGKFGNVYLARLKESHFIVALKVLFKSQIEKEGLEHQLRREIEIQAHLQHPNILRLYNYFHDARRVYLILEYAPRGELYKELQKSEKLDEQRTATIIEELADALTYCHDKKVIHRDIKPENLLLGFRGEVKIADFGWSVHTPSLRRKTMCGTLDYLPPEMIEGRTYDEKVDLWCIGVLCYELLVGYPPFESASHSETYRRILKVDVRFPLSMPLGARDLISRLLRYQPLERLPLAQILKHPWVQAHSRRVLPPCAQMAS
Interleukin-1 receptor-associated kinase 1 (Homo sapiens), sequence (P51617 whole entry, looked up): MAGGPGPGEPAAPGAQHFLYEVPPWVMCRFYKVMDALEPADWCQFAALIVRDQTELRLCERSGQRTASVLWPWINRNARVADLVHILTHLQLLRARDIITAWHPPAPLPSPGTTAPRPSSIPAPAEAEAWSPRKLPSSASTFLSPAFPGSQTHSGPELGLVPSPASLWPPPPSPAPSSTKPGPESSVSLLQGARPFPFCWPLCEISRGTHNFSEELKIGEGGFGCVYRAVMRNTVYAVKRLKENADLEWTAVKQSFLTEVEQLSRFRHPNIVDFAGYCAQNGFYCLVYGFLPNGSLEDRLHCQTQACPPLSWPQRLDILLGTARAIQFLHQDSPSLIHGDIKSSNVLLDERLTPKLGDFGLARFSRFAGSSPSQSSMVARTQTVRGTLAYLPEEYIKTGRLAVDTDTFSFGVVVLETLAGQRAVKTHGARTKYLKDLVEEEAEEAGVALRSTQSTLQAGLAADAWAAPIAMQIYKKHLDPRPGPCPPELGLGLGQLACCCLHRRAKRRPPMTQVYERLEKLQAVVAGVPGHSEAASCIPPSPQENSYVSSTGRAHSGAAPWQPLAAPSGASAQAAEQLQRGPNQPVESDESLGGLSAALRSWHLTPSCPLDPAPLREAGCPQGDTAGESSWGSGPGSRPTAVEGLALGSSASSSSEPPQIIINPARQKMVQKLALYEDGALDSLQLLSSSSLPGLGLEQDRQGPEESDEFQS

SMILES	% Inhibition of Control Specific Binding (Mean n=2) [1]	% Inhibition of Control Specific Binding (Mean n=2) [2]	% Inhibition of Control Specific Binding (Mean n=2) [3]	% Inhibition of Control Specific Binding (Mean n=2) [4]	% Inhibition of Control Specific Binding (Mean n=2) [5]	% Inhibition of Control Specific Binding (Mean n=2) [6]	% Inhibition of Control Specific Binding (Mean n=2) [7]	% Inhibition of Control Specific Binding (Mean n=2) [8]	residual activity [9]	residual activity [10]	residual activity [11]	residual activity [12]	residual activity [13]	residual activity [14]	residual activity [15]	residual activity [16]	residual activity [17]	residual activity [18]	residual activity [19]	residual activity [20]	further results
COc1ccc2c(c1)O[C@H](c1ccc(OC)c(OC)c1)C[C@@H]2NC(=O)C1(c2ccc3c(c2)OC(F)(F)O3)CC1 [A-1596584]	27.3%	-3.4%	18.7%	13.7%	13.1%	5.9%	18.2%	-15.1%	100%	97%	100%	100%	100%	64%	94%	100%	87%	87%	100%	93%	residual activity [21]: 88%; residual activity [22]: 100%; residual activity [23]: 95%; residual activity [24]: 100%; residual activity [25]: 100%; residual activity [26]: 100%; residual activity [27]: 84%; residual activity [28]: 100%; residual activity [29]: 100%; residual activity [30]: 85%; residual activity [31]: 81%; residual activity [32]: 100%; residual activity [33]: 100%; residual activity [34]: 61%; residual activity [35]: 98%; residual activity [36]: 100%; inhibition [37]: 16.1%; inhibition (Rattus norvegicus): 66.6%
COc1ccc2c(c1)O[C@@H](c1ccc(OC)c(OC)c1)C[C@H]2NC(=O)C1(c2ccc3c(c2)OC(F)(F)O3)CC1 [A-1596586]	5.7%	4.9%	27.7%	-5.5%	9.3%	4.7%	23.5%	-17.9%	93%	94%	100%	71%	100%	68%	90%	89%	90%	94%	100%	80%	residual activity [21]: 92%; residual activity [22]: 90%; residual activity [23]: 79%; residual activity [24]: 93%; residual activity [25]: 100%; residual activity [26]: 87%; residual activity [27]: 94%; residual activity [28]: 100%; residual activity [29]: 97%; residual activity [30]: 97%; residual activity [31]: 73%; residual activity [32]: 100%; residual activity [33]: 81%; residual activity [34]: 68%; residual activity [35]: 83%; residual activity [36]: 100%; inhibition [37]: 2.95%; inhibition (Rattus norvegicus): 90.5%
